What follows are molecules tested against T1, H. sapiens SLC2A9 variant 2 (GLUT9B) (Homo sapiens, UniProt Q9NRM0) (assay: GLUT9 functional assay: uric acid uptake in HEK293T cells, allantoin formation by MS/MS as proxy of GLUT9B inhibition). Settings: 15 minute assay; HEK293T cells stably expressing GLUT9B and transiently A. oryzae uricase; uric acid 0.3 mM, 37° C.; read-out: 15 min IC50.
T1 sequence (Q9NRM0 1-511 isoform Q9NRM0-2): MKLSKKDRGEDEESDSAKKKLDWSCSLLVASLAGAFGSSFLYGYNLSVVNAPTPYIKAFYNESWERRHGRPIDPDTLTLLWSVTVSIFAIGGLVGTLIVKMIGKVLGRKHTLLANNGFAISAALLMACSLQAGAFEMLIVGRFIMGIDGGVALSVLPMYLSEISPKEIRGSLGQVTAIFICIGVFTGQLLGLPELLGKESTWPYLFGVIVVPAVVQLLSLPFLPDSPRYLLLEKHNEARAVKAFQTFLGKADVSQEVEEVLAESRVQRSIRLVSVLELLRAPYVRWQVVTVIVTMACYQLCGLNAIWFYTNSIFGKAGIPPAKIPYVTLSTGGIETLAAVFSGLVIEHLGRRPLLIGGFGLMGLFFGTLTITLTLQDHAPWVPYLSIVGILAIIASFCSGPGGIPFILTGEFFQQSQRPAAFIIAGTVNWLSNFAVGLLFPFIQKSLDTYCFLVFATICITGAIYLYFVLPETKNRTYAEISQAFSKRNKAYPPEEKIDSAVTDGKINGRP
Assay type: cell-based
Summary of the method: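 HEK293T cells stably expressing human GLUT9B and transiently expressing A. oryzae uricase, exposed across a 12-point curve to 0.3 mM uric acid (Km) in sodium gluconate buffer pH 7.4 for 15 or 60 min at 37° C. Allantoin in lysates quantified by RapidFire MS/MS (positive ion) against a matrix-matched standard curve as proxy for uptake.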

IC50	Structure (SMILES)
< 500 nM	COCCCc1cnc(-c2cc(F)c3occc3c2)c(N2CCC(C(=O)O)CC2)n1 [Compound 173, 1-(3-(7-Fluorobenzofuran-5-yl)-6-(3-Methoxypropyl)Pyrazin-2-yl)piperidine-4-carboxylic acid]
500 to 2000 nM	O=C(O)C1(O)CCN(c2nc(CCCC(F)(F)F)cnc2-c2ccc3occc3c2)CC1 [Compound 174, 1-(3-(benzofuran-5-yl)-6-(4,4,4-trifluorobutyl)pyrazin-2-yl)-4-hydroxypiperidine-4-carboxylic acid]
> 2000 nM	COCCCc1cnc(-c2ccc3occc3c2)c(N2CC(C(=O)O)C2)n1 [Compound 175, 1-(3-(benzofuran-5-yl)-6-(3-methoxypropyl)pyrazin-2-yl)azetidine-3-carboxylic acid]
> 2000 nM	COCCCc1cnc(-c2ccc3c(c2)OCO3)c(N2CC(C(=O)O)C2)n1 [Compound 176, 1-(3-(benzo[d][1,3]dioxol-5-yl)-6-(3-methoxypropyl)pyrazin-2-yl)azetidine-3-carboxylic acid]
< 500 nM	O=C(O)C1CCN(c2nc(CCCOCC(F)(F)F)cnc2-c2ccc3occc3c2)CC1 [Compound 177, 1-(3-(benzofuran-5-yl)-6-(3-(2,2,2-trifluoroethoxy)propyl)pyrazin-2-yl)piperidine-4-carboxylic acid]

More lines, now with the values behind:

Structure (SMILES)	IC50
COCCOc1ccc(-c2ncc(CC(COC)COC)nc2N2CCC(C(=O)O)CC2)cc1 [Compound 155, 1-(6-(3-methoxy-2-(methoxymethyl)propyl)-3-(4-(2-methoxyethoxy)phenyl)pyrazin-2-yl)piperidine-4-carboxylic acid]	> 2000 nM
COCC(COC)Cc1cnc(-c2ccc(OCC3CC3)cc2)c(N2CCC(C(=O)O)CC2)n1 [Compound 156, 1-(3-(4-(cyclopropylmethoxy)phenyl)-6-(3-methoxy-2-(methoxymethyl)propyl)pyrazin-2-yl)piperidine-4-carboxylic acid]	> 2000 nM
O=C(O)C1CCN(c2nc(CCCC(F)(F)F)cnc2-c2ccc(OC(F)(F)F)cc2)CC1 [Compound 157, 1-(6-(4,4,4-trifluorobutyl)-3-(4-(trifluoromethoxy)phenyl)pyrazin-2-yl)piperidine-4-carboxylic acid]	< 500 nM
O=C(O)C1CCN(c2nc(CCCC(F)(F)F)cnc2-c2ccc(C(F)(F)F)cc2)CC1 [Compound 158, 1-(6-(4,4,4-trifluorobutyl)-3-(4-(trifluoromethyl)phenyl)pyrazin-2-yl)piperidine-4-carboxylic acid]	500 to 2000 nM
O=C(O)C1CCN(c2nc(CCCC(F)(F)F)cnc2-c2ccc(OC(F)F)cc2)CC1 [Compound 159, 1-(3-(4-(difluoromethoxy)phenyl)-6-(4,4,4-trifluorobutyl)pyrazin-2-yl)piperidine-4-carboxylic acid]	500 to 2000 nM
O=C(O)C1CCN(c2nc(CCCC(F)(F)F)cnc2-c2ccc3c(c2)OC(F)(F)O3)CC1 [Compound 160, 1-(3-(2,2-difluorobenzo[d][1,3]dioxol-5-yl)-6-(4,4,4-trifluorobutyl)pyrazin-2-yl)piperidine-4-carboxylic acid]	500 to 2000 nM
O=C(O)C1CCN(c2nc(CCC(F)(F)F)cnc2-c2ccc(OC(F)(F)F)cc2)CC1 [Compound 161, 1-(3-(4-(trifluoromethoxy)phenyl)-6-(3,3,3-trifluoropropyl)pyrazin-2-yl)piperidine-4-carboxylic acid]	500 to 2000 nM
O=C(O)C1CCN(c2nc(CCC(F)(F)F)cnc2-c2ccc(C(F)(F)F)cc2)CC1 [Compound 162, 1-(3-(4-(trifluoromethyl)phenyl)-6-(3,3,3-trifluoropropyl)pyrazin-2-yl)piperidine-4-carboxylic acid]	500 to 2000 nM
O=C(O)C1CCN(c2nc(CCC(F)(F)F)cnc2-c2ccc(OC(F)F)cc2)CC1 [Compound 163, 1-(3-(4-(difluoromethoxy)phenyl)-6-(3,3,3-trifluoropropyl)pyrazin-2-yl)piperidine-4-carboxylic acid]	500 to 2000 nM
O=C(O)C1CCN(c2nc(CCC(F)(F)F)cnc2-c2ccc3c(c2)OC(F)(F)O3)CC1 [Compound 164, 1-(3-(2,2-difluorobenzo[d][1,3]dioxol-5-yl)-6-(3,3,3-trifluoropropyl)pyrazin-2-yl)piperidine-4-carboxylic acid]	500 to 2000 nM
O=C(O)C1(O)CCN(c2nc(CCCC(F)(F)F)cnc2-c2cc(F)c3occc3c2)CC1 [Compound 165, 1-(3-(7-fluorobenzofuran-5-yl)-6-(4,4,4-trifluorobutyl)pyrazin-2-yl)-4-hydroxypiperidine-4-carboxylic acid]	< 500 nM
O=C(O)C1(O)CCN(c2nc(CCCC(F)(F)F)cnc2-c2ccc3c(c2)OCO3)CC1 [Compound 166, 1-(3-(benzo[d][1,3]dioxol-5-yl)-6-(4,4,4-trifluorobutyl)pyrazin-2-yl)-4-hydroxypiperidine-4-carboxylic acid]	500 to 2000 nM
COCCOc1ccc(-c2ncc(CCCC(F)(F)F)nc2N2CCC(O)(C(=O)O)CC2)cc1 [Compound 167, 4-hydroxy-1-(3-(4-(2-methoxyethoxy)phenyl)-6-(4,4,4-trifluorobutyl)pyrazin-2-yl)piperidine-4-carboxylic acid]	> 2000 nM
COCCCc1cnc(-c2cc(F)c3occc3c2)c(N2CCC(C(=O)O)CC2)c1 [Compound 168, 1-(2-(7-Fluorobenzofuran-5-yl)-5-(3-Methoxypropyl)Pyridin-3-yl)piperidine-4-carboxylic acid]	< 500 nM
COCCCc1cnc(-c2cc(F)c3c(c2)OCO3)c(N2CCC(C(=O)O)CC2)c1 [Compound 169, 1-(2-(7-fluorobenzo[d][1,3]dioxol-5-yl)-5-(3-methoxypropyl)pyridin-3-yl)piperidine-4-carboxylic acid]	< 500 nM
COCCCc1cnc(-c2cnc3occc3c2)c(N2CCC(C(=O)O)CC2)c1 [Compound 170, 1-(2-(Furo[2,3-b]Pyridin-5-yl)-5-(3-Methoxypropyl)Pyridin-3-yl)piperidine-4-carboxylic acid]	500 to 2000 nM
COCCCc1cnc(-c2ccc3c(c2)OCO3)c(N2CCC(O)(C(=O)O)CC2)n1 [Compound 171, 1-(3-(benzo[d][1,3]dioxol-5-yl)-6-(3-methoxypropyl)pyrazin-2-yl)-4-hydroxypiperidine-4-carboxylic acid]	> 2000 nM
COCCCc1cnc(-c2ccc3occc3c2)c(N2CCC(C(=O)O)CC2)n1 [Compound 172, 1-(3-(benzofuran-5-yl)-6-(3-Methoxypropyl)Pyrazin-2-yl)Piperidine-4-carboxylic acid]	< 500 nM

Same assay, conditions: 60 minute assay; HEK293T cells stably expressing GLUT9B and transiently A. oryzae uricase; uric acid 0.3 mM, 37° C.; read-out: 60 min IC50

IC50	Structure (SMILES)
< 500 nM	COCCCc1cnc(-c2cc(F)c3occc3c2)c(N2CCC(C(=O)O)CC2)n1 [Compound 173, 1-(3-(7-Fluorobenzofuran-5-yl)-6-(3-Methoxypropyl)Pyrazin-2-yl)piperidine-4-carboxylic acid]
> 2000 nM	COCCCc1cnc(-c2ccc3occc3c2)c(N2CC(C(=O)O)C2)n1 [Compound 175, 1-(3-(benzofuran-5-yl)-6-(3-methoxypropyl)pyrazin-2-yl)azetidine-3-carboxylic acid]
500 to 2000 nM	O=C(O)C1CCN(c2nc(CCCOCC(F)(F)F)cnc2-c2ccc3c(c2)OCO3)CC1 [Compound 178, 1-(3-(benzo[d][1,3]dioxol-5-yl)-6-(3-(2,2,2-trifluoroethoxy)propyl)pyrazin-2-yl)piperidine-4-carboxylic acid]
500 to 2000 nM	COCCCc1cnc(-c2ccc3oc(COC)cc3c2)c(N2CCC(C(=O)O)CC2)n1 [Compound 179, 1-(3-(2-(methoxymethyl)benzofuran-5-yl)-6-(3-methoxypropyl)pyrazin-2-yl)piperidine-4-carboxylic acid]
< 500 nM	COCCCc1cnc(-c2ccc3occc3c2)c(N2CCC3(C(=O)O)CC2C3)n1 [Compound 181, 2-(3-(benzofuran-5-yl)-6-(3-methoxypropyl)pyrazin-2-yl)-2-azabicyclo[3.1.1]heptane-5-carboxylic acid]
> 2000 nM	COCCCc1cnc(-c2ccc3occc3c2)c(NC23CC(C(=O)O)(C2)C3)n1 [Compound 182, 3-((3-(benzofuran-5-yl)-6-(3-methoxypropyl)pyrazin-2-yl)amino)bicyclo[1.1.1]pentane-1-carboxylic acid]
< 500 nM	COCCCc1cnc(-c2cc(F)c3occc3c2)c(N2CCC(C)(C(=O)O)CC2)n1 [Compound 184, 1-(3-(7-fluorobenzofuran-5-yl)-6-(3-methoxypropyl)pyrazin-2-yl)-4-methylpiperidine-4-carboxylic acid]
500 to 2000 nM	COCCCc1cnc(-c2cc(F)c3occc3c2)c(N2CCC(O)(C(=O)O)CC2)n1 [Compound 185, 1-(3-(7-fluorobenzofuran-5-yl)-6-(3-methoxypropyl)pyrazin-2-yl)-4-hydroxypiperidine-4-carboxylic acid]
< 500 nM	COCCCc1cnc(-c2cc(F)c3occc3c2)c(N2CCC(C(=O)O)C3CC32)n1 (stereo not drawn) [Compound 186, 2-(3-(7-fluorobenzofuran-5-yl)-6-(3-methoxypropyl)pyrazin-2-yl)-2-azabicyclo[4.1.0]heptane-5-carboxylic acid]
< 500 nM	COCCCc1cnc(-c2cc(F)c3occc3c2)c(N2CCC(C(=O)O)C(F)(F)C2)n1 (stereo not drawn) [Compound 187, 3,3-difluoro-1-(3-(7-fluorobenzofuran-5-yl)-6-(3-methoxypropyl)pyrazin-2-yl)piperidine-4-carboxylic acid]

Further lines, the molecule ahead of its results:

Structure (SMILES)	IC50
COCCCc1cnc(-c2cc(F)c3occc3c2)c(N2CCC(C(=O)O)CC2)c1 [Compound 168, 1-(2-(7-Fluorobenzofuran-5-yl)-5-(3-Methoxypropyl)Pyridin-3-yl)piperidine-4-carboxylic acid]	< 500 nM
COCCCc1cnc(-c2cnc3occc3c2)c(N2CCC(C(=O)O)CC2)c1 [Compound 170, 1-(2-(Furo[2,3-b]Pyridin-5-yl)-5-(3-Methoxypropyl)Pyridin-3-yl)piperidine-4-carboxylic acid]	> 2000 nM
COCCCc1cnc(-c2ccc3occc3c2)c(N2CCC(C(=O)O)CC2)n1 [Compound 172, 1-(3-(benzofuran-5-yl)-6-(3-Methoxypropyl)Pyrazin-2-yl)Piperidine-4-carboxylic acid]	< 500 nM

Reference: patent US20250179032A1, “HETEROCYCLIC INHIBITORS OF GLUT9 FOR TREATMENT OF DISEASE” (HORIZON THERAPEUTICS IRELAND DAC, priority 2022, published 2025)
